# From article PMC11428215, “Unveiling a New Antimicrobial Peptide with Efficacy against P. aeruginosa and K. pneumoniae from Mangrove-Derived Paenibacillus thiaminolyticus NNS5-6 and Genomic Analysis” (Antibiotics, 2024)
# Key:
# [1] = test system: P. aeruginosa TISTR 357; assay: Compatibility with surfactants, residual antibacterial activity; assay type: physicochemical, Pseudomonas aeruginosa; settings: no AMP (same value in 1 h, 6 h and 12 h), agar well diffusion, % of non-treated AMP, mean ± SD, n = 3
# Procedure: The AMP was dissolved in sterile purified water and adjusted a final concentration to 16 µg/mL. The sensitivity of the AMP to temperatures of 37, 40, 50, 60, 80, and 100 °C, as well as autoclaving at 121 °C for 15 and 30 min was evaluated. The sensitivity of the AMP to proteolytic enzymes with different digesting characteristics was studied by incubating with a concentration of 1 mg/mL of proteinase K, trypsin, and α-chymotrypsin (Sigma-Aldrich, Warren, MI, USA). The compatibility of the AMP with surfactants was evaluated by exposing the AMP to 1% SDS or 1% Triton X-100 (AppliChem GmbH, Darmstadt, Germany). The degradation of the AMP under various pH conditions, including physiological and extended alkaline conditions, was evaluated by adjusting the pH of the solution to 1.2, 4.5, 6.8, 7.4, 8.0, 10.0, 12.0, and 14.0. After incubation, the pH of the AMP solution was neutralized to the original pH before being assessed for antibacterial activity. The antibacterial assay against P. aeruginosa TISTR 357 was conducted using the agar well diffusion assay in triplicate. The stability profiles are presented as the percentage of the residual activity compared with the non-treatment conditions (mean ± SD), and statistical significance was determined by the Student’s t-test at a p-value < 0.05.
# [2] = test system: S. aureus TISTR 517; assay: Agar well diffusion, antibacterial spectrum; assay type: cell-based, Staphylococcus aureus
# Procedure: (§1) The active isolates from the agar overlay assay were transferred into broth media identical to that used during the initial isolation. The cultures were incubated at 30 °C with shaking at 150 rpm for 18 h. The optical density of the starter culture was adjusted to a turbidity of 0.1 OD at 625 nm using a 0.85% sterile NaCl solution before transferring 1 mL of the culture into 49 mL of fresh broth. The inoculum was then incubated at 30 °C with shaking at 150 rpm for 24 h. The CFS was obtained by centrifugation at 10,000× g at 4 °C for 15 min and filtered through a 0.2 µm sterile cellulose acetate syringe filter. The antibacterial activity of the CFS derived from each isolate was investigated using P. aeruginosa TISTR 357, K. pneumoniae TISTR 1383, E. coli TISTR 887, S. typhimurium TISTR 1469, V. parahaemolyticus TISTR 1596, and S. aureus TISTR 517 from the Thailand Institute of Scientific and Technological Research (TISTR), Thailand. The antibiotic-resistant strain, MRSA strain 2468, was kindly provided by the medical technology laboratory at the School of the Allied Health Sciences, Walailak University, Thailand. The microbial indicators were incubated at 37 °C for 18 h on MH agar. […] The experiment was conducted in triplicate, and the mean ± SD of the diameters of the inhibition zones was measured.
# [3] = test system: MRSA Strain 2468; assay: Agar well diffusion, antibacterial spectrum; assay type: cell-based, methicillin-resistant Staphylococcus aureus
# Procedure: as §1
# [4] = test system: V. parahaemolyticus TISTR 1596; assay: Agar well diffusion, antibacterial spectrum; assay type: cell-based, Vibrio parahaemolyticus
# Procedure: as §1
# [5] = test system: E. coli TISTR 887; assay: Agar well diffusion, antibacterial spectrum; assay type: cell-based, Escherichia coli
# Procedure: as §1
# [6] = test system: K. pneumoniae TISTR 1383; assay: Agar well diffusion, antibacterial spectrum; assay type: cell-based, Klebsiella pneumoniae
# Procedure: as §1
# [7] = test system: S. typhimurium TISTR 1469; assay: Agar well diffusion, antibacterial spectrum; assay type: cell-based, Salmonella typhimurium
# Procedure: as §1
# [8] = test system: P. aeruginosa TISTR 357; assay: Agar well diffusion, antibacterial spectrum; assay type: cell-based, Pseudomonas aeruginosa
# Procedure: as §1
# [9] = test system: K. pneumoniae TISTR 1383; assay type: cell-based, Klebsiella pneumoniae; settings: 37 °C 24 h, triplicate
# Procedure: (§2) The MIC and MBC of the purified AMP were determined using the broth microdilution method following the guidance provided by the Clinical and Laboratory Standards Institute (CLSI). P. aeruginosa TISTR 357 and K. pneumoniae TISTR 1383 were cultured on MH agar and incubated at 37 °C for 18 h. A single colony of the tested bacteria was suspended in 0.85% NaCl until the suspension turbidity reached an OD of 0.1 at 625 nm. The cells were then diluted to 5 × 10^6 CFU/mL using cation-adjusted Mueller Hinton broth (CAMHB). The diluted cell suspension of 10 µL was transferred into each well of a 96-well plate with a final volume of 100 µL per well. The AMP was added to achieve final concentrations ranging from 0.125 to 64 µg/mL. Colistin was used as the positive control, while antibiotic-free samples were used as negative controls. The 96-well plate was incubated at 37 °C for 24 h. Each strain was tested in triplicate. […] Subsequently, 100 µL of each dilution was spread on MH agar and then incubated at 37 °C for 24 h. The MBC was identified as the lowest concentration at which no bacterial colony growth was observed on the agar plate.
# [10] = test system: P. aeruginosa TISTR 357; assay type: cell-based, Pseudomonas aeruginosa; settings: 37 °C 24 h, triplicate
# Procedure: as §2
# [11] = cited from earlier work
# Text: The AMP of Paenibacillus thiaminolyticus NNS5-6 was sensitive to proteinase K and trypsin, confirming its proteinaceous nature. […] The AMP was also stable across a wide pH range (pH 4.5–10) compared with extremely acidic and alkaline environments. This information could help inform temperature conditions and buffer choices during purification and guide the formulation development of drug delivery systems for suitable administration routes.
# [12] = agar well diffusion on MH agar, 9 mm wells, 37 °C 18 h, CFS 100 µL, vancomycin 30 µg, colistin 1 µg, mean ± SD, n = 3
# [13] = plated on MH agar after microdilution
molecule,measurement,setting,value
"CCCCCCCCCCCCOS(=O)(=O)[O-].[Na+] [SDS, reference compound]","antibacterial activity of surfactant alone against P. aeruginosa TISTR 357, given as % residual activity",[1]; 1% SDS alone,121.76 ± 2.42 %
CN[C@H](CC(C)C)C(=O)N[C@H]1C(=O)N[C@@H](CC(N)=O)C(=O)N[C@H]2C(=O)N[C@H]3C(=O)N[C@H](C(=O)N[C@H](C(=O)O)c4cc(O)cc(O)c4-c4cc3ccc4O)[C@H](O)c3ccc(c(Cl)c3)Oc3cc2cc(c3O[C@@H]2O[C@H](CO)[C@@H](O)[C@H](O)[C@H]2O[C@H]2C[C@](C)(N)[C@H](O)[C@H](C)O2)Oc2ccc(cc2Cl)[C@H]1O [Vancomycin],zone of inhibition at 30 µg/disc,"[2]; Staphylococcus aureus, TISTR517, 18 h",21.6 ± 0.51 mm
same,zone of inhibition at 30 µg/disc,"[3]; Staphylococcus aureus, MRSA, 18 h",21.8 ± 0.78 mm
same,zone of inhibition at 30 µg/disc,"[4]; Vibrio parahaemolyticus, TISTR1596, 18 h",0 mm
same,zone of inhibition at 30 µg/disc,"[5]; Escherichia coli, TISTR887, 18 h",0 mm
same,zone of inhibition at 30 µg/disc,"[6]; Klebsiella pneumoniae, TISTR1383, 18 h",0 mm
same,zone of inhibition at 30 µg/disc,"[7]; Salmonella enterica, 18 h",0 mm
same,zone of inhibition at 30 µg/disc,"[8]; Pseudomonas aeruginosa, TISTR357, 18 h",0 mm
Colistin,Zone of Inhibition,[2]; [12],0.00 ± 0.00 mm
same,MIC,"[9]; broth microdilution, CAMHB",1 µg/mL
same,MBC,[9]; [13],1 µg/mL
same,Zone of Inhibition,[3]; [12],0.00 ± 0.00 mm
same,Zone of Inhibition,[4]; [12],18.8 ± 0.76 mm
same,Zone of Inhibition,[5]; [12],18.13 ± 0.88 mm
same,Zone of Inhibition,[6]; [12],18.81 ± 0.39 mm
same,MIC,"[10]; broth microdilution, CAMHB",1 µg/mL
same,MBC,[10]; [13],1 µg/mL
same,Zone of Inhibition,[7]; [12],20.4 ± 0.89 mm
same,Zone of Inhibition,[8]; [12],18.05 ± 0.67 mm
Triton X-100 [reference compound],"antibacterial activity of surfactant alone against P. aeruginosa TISTR 357, given as % residual activity",[1]; 1% Triton X-100 alone,126.83 ± 2.72 %
fusaricidin A,sensitivity to protease treatment,[11],insensitive to protease treatment
same,pH range over which antimicrobial activity is retained,[11]; fusaricidin A produced by Paenibacillus bovis sp. nov BD3526,2.0 to 9.0
